Data as given in ChEMBL document CHEMBL4828744, “Design, synthesis and biological evaluation of pyridinylmethylenepiperidine derivatives as potent 5-HT1F receptor agonists for migraine therapy” (Eur J Med Chem, 2021).
The source made the active and inactive calls. The calls are words filed in the database; no cut-off is given here.

Legend:
[1] = molecular target: T1, 5-hydroxytryptamine receptor 1F (Homo sapiens, UniProt P30939); experiment: Agonist activity at 5HT1F receptor (unknown origin) expressed in HEK293 cells measured after 60 mins by Fluo-4AM dye based FLIPR assay; type: functional, cell-based; settings: read-out: IC50 (the source's name)
T1 sequence (P30939 whole entry): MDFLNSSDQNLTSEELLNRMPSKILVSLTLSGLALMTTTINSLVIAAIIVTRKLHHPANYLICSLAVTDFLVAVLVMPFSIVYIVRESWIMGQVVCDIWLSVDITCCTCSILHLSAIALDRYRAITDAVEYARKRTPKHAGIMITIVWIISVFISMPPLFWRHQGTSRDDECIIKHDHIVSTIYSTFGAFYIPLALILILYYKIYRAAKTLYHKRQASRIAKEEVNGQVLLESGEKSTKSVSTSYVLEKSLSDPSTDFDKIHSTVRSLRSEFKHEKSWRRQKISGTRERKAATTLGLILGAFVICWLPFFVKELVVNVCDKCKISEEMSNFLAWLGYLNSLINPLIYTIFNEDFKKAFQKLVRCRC

[2] = Cmax in Sprague-Dawley rat at 1 mg/kg, iv measured for 24 hrs by LC-MS/MS analysis; type: ADME, organism-based; parameters: route intravenous, dose 1 mg/kg, time 24 hrs; settings: in vivo
[3] = Cmax in Sprague-Dawley rat at 5 mg/kg, ig measured for 24 hrs by LC-MS/MS analysis; type: ADME, organism-based; parameters: route intragastric, time 24 hrs, dose 5 mg/kg; settings: in vivo, po
[4] = AUC(0 to t) in Sprague-Dawley rat at 1 mg/kg, iv measured for 24 hrs by LC-MS/MS analysis; type: ADME, organism-based; parameters: time 24 hrs, dose 1 mg/kg; settings: in vivo
[5] = AUC(0 to t) in Sprague-Dawley rat at 5 mg/kg, ig measured for 24 hrs by LC-MS/MS analysis; type: ADME, organism-based; parameters: time 24 hrs, dose 5 mg/kg; settings: in vivo, po
[6] = Half life in Sprague-Dawley rat at 1 mg/kg, iv measured for 24 hrs by LC-MS/MS analysis; type: ADME, organism-based; settings: in vivo
[7] = Half life in Sprague-Dawley rat at 5 mg/kg, ig measured for 24 hrs by LC-MS/MS analysis; type: ADME, organism-based; settings: in vivo, po
[8] = Volume of distribution at steady state in Sprague-Dawley rat at 1 mg/kg, iv measured for 24 hrs by LC-MS/MS analysis; type: ADME, organism-based; settings: in vivo, read-out: Vdss
[9] = Clearance in Sprague-Dawley rat at 1 mg/kg, iv measured for 24 hrs by LC-MS/MS analysis; type: ADME, organism-based; settings: in vivo
[10] = Bioavailability in Sprague-Dawley rat at 5 mg/kg, ig measured for 24 hrs by LC-MS/MS analysis; type: ADME, organism-based; settings: in vivo, po
[11] = molecular target: T2, 5-hydroxytryptamine receptor 1F (Homo sapiens) (UniProt P30939); experiment: Potency index, ratio of lasmiditan EC50 to test compound EC50 for agonist activity at 5HT1F receptor (unknown origin) expressed in HEK293 cells measured after 60 mins by Fluo-4AM dye based FLIPR assay; type: functional, cell-based
T2 sequence (whole entry): T1 sequence (P30939 whole entry)

[12] = Toxicity in NewZealand rabbit Saphenous vein rings assessed as induction of vasoconstriction at 1 to 100 uM; type: tissue-based, Oryctolagus cuniculus; settings: dose 1-100 µM
Rattus norvegicus [13] = experiment: Antimigraine activity against electrical stimulation of trigeminal ganglion migraine Wistar rat model assessed as reduction in c-Fos-positive cells at 10 ug/kg, po measured after 60 mins by confocal fluorescence microscopic analysis; type: functional, organism-based; settings: dose 10.0 µg/kg
Rattus norvegicus [14] = experiment: Antimigraine activity against electrical stimulation of trigeminal ganglion migraine Wistar rat model assessed as reduction in dural plasma protein extravasation at 0.01 ug/kg, po measured after 45 mins by confocal fluorescence microscopic analysis; type: functional, organism-based; settings: dose 0.01 µg/kg
[15] = Toxicity in NewZealand rabbit Saphenous vein rings assessed as induction of vasoconstriction at 0.01 to 100 uM; type: tissue-based, Oryctolagus cuniculus; settings: dose 0.01-100 µM

SMILES	EC50 [1] [nM]	Cmax [2] [ng/mL]	Cmax [3] [ng/mL]	AUC(0-t) at 24 h [4] [ng·h/mL]	AUC(0-t) at 24 h [5] [ng·h/mL]	half-life [6] [min]	half-life [7] [min]	Vd [8] [L/kg]	clearance [9] [mL/min/kg]	bioavailability [10] [%]	Ratio EC50 [11]	Activity [12]	Activity (Rattus norvegicus [13])	Activity (Rattus norvegicus [14])	Activity [15]
CN1CCC(=C(F)c2cccc(NC(=O)c3ccc(F)cc3F)n2)CC1	4.67	74.4	9.71	70.4	44.6	63	49.4	17.7	229	12.9	3				
CN1CCC(=C(F)c2cccc(NC(=O)c3ccc(Cl)cn3)n2)CC1	161														
O=C(Nc1cccc(C(F)=C2CCN(C(F)(F)F)CC2)n1)c1c(F)cc(F)cc1F	> 10000														
CNS(=O)(=O)Cc1ccc2[nH]cc(CCN(C)C)c2c1 [SUMATRIPTAN]												Toxic			
CN1CCC(=C(F)c2cccc(NC(=O)c3ccc(F)cc3)n2)CC1	6.36	75.3	34.1	104	157	82.2	84.6	17.3	156	32.5	3				
O=C(Nc1cccc(C(F)=C2CCN(C3CC3)CC2)n1)c1c(F)cc(F)cc1F	570														
CN1CCC(=C(F)c2cccc(NC(=O)c3ccc(F)cn3)n2)CC1	24.3	94.9	34.7	103	121	55.4	74.4	11	159	23.7					
CCN1CCC(=C(F)c2cccc(NC(=O)c3c(F)cc(F)cc3F)n2)CC1	178														
CN1CCC(=C(F)c2cccc(NC(=O)c3ccc(Cl)cc3F)n2)CC1	23.4	72.2	23.2	90.5	105	85.2	101	20.1	178	26.2	3				
O=C(Nc1cccc(C(F)=C2CCN(C(F)F)CC2)n1)c1c(F)cc(F)cc1F	813														
CN1CCC(C(=O)c2cccc(NC(=O)c3c(F)cc(F)cc3F)n2)CC1 [LASMIDITAN]		28.1	90.9	105	386	187	203	32.2	127	63.2			Active	Active	Non-Toxic
CN1CCC(=C(F)c2cccc(NC(=O)c3ccc(Cl)cc3)n2)CC1	29.3	61	35.7	89.4	151	96	145	20.3	180	39	3				
